Assay results published in ChEMBL document CHEMBL1149948, “Chemical and enzymatic synthesis of high-affinity selectin ligands” (Bioorg Med Chem Lett, 1997).

Assays:
[1] = target: T1, P-selectin (Homo sapiens, UniProt P16109); assay: Tested for its ability to inhibit HL60 cell adhesion to P-selectin-IgG fusion proteins; type: cell-based, HL-60
T1 sequence (P16109 whole entry): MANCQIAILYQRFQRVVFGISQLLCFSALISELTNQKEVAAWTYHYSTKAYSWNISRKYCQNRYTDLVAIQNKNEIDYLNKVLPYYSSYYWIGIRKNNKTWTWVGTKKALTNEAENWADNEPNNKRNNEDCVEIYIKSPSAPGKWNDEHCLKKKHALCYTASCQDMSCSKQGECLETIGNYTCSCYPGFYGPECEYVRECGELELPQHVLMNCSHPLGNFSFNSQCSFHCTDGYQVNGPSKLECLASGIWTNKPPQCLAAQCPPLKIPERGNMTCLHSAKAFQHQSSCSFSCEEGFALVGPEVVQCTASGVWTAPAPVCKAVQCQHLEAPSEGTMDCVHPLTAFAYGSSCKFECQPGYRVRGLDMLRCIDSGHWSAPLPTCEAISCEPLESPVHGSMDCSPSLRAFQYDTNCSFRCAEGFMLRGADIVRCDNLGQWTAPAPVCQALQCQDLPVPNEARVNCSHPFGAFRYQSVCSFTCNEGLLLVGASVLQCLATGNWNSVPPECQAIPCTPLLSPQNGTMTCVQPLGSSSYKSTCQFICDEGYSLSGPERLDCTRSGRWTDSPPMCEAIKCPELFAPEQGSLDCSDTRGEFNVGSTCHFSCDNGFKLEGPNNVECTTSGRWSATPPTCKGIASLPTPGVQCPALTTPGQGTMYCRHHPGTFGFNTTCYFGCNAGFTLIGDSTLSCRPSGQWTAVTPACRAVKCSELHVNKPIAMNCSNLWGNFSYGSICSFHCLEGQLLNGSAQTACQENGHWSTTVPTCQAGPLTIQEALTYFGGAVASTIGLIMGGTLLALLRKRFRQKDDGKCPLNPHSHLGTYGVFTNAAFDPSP

[2] = target: T2, E-selectin (Homo sapiens, UniProt P16581); assay: Tested for its ability to inhibit HL60 cell adhesion to Selectin E IgG fusion proteins; type: cell-based, HL-60
T2 sequence (P16581 whole entry): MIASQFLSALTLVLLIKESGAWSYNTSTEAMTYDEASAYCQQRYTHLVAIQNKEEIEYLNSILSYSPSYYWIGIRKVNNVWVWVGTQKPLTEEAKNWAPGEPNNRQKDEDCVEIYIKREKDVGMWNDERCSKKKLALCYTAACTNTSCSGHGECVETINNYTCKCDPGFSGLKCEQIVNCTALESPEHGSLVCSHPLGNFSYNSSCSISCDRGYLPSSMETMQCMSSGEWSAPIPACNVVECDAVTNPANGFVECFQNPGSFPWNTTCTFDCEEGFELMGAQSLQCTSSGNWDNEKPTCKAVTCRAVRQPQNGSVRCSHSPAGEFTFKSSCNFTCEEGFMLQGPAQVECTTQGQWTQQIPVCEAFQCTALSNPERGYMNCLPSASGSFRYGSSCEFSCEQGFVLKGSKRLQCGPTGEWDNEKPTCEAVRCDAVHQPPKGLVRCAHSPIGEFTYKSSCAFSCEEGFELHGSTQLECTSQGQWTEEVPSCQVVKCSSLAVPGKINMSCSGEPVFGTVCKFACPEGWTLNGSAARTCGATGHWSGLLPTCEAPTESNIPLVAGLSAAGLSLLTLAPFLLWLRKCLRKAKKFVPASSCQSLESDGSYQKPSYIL

| IC50 ([1]; hl-60) | IC50 [1] | IC50 [2] | Structure (SMILES) |
| --- | --- | --- | --- |
| 2000 µM |  |  | CC(=O)N[C@@H]1[C@H](OCCCCCCN)O[C@@H](CO)[C@@H](O[C@@H]2O[C@@H](CO)[C@H](O)[C@H](O[C@]3(C(=O)O)C[C@@H](O)[C@@H](NC(C)=O)[C@H]([C@H](O)[C@H](O)CO)O3)[C@@H]2O)[C@@H]1O[C@@H]1O[C@@H](C)[C@@H](O)[C@H](O)[C@@H]1O |
|  | 700 µM | 700 µM | CC(=O)N[C@@H]1[C@H](OCCCCCCN)O[C@@H](CO)[C@@H](O[C@@H]2O[C@@H](CO)[C@H](O)[C@H](O[C@]3(C(=O)O)C[C@@H](O)C[C@H]([C@H](O)[C@H](O)CO)O3)[C@@H]2O)[C@@H]1O[C@@H]1O[C@@H](C)[C@@H](O)[C@H](O)[C@@H]1O |
|  | 1000 µM | 900 µM | CC(=O)N[C@@H]1[C@H](OCCCCCCN)O[C@@H](CO)[C@@H](O[C@@H]2O[C@@H](CO)[C@H](O)[C@H](O[C@]3(C(=O)O)C[C@@H](O)[C@@H](N)[C@H]([C@H](O)[C@H](O)CO)O3)[C@@H]2O)[C@@H]1O[C@@H]1O[C@@H](C)[C@@H](O)[C@H](O)[C@@H]1O |
|  | 160 µM | 270 µM | C[C@@H]1O[C@@H](O[C@@H]2[C@H](N)[C@H](OCCCCCCN)O[C@@H](CO)[C@H]2O[C@@H]2O[C@@H](CO)[C@H](O)[C@H](O[C@]3(C(=O)O)C[C@@H](O)[C@@H](N)[C@H]([C@H](O)[C@H](O)CO)O3)[C@@H]2O)[C@@H](O)[C@@H](O)[C@@H]1O |
